Results taken from patent US9585846B2, “Anti-microbial composition” (Wild Child, priority 2007, dated 2017).

System: S. aureus ATCC 6538P
Assay: Agar plate test of cream against S. aureus (colonies recovered)
Type: cell-based
Settings: farnesol when combined with cetrimide
Description: A series of plates were then prepared containing an aliquot of sample (3) prepared in accordance with the preferred formula given above. The aliquot was suspended in tryptone soy agar. 1 g of the cream was emulsified into 5 mL of saline. A 2 mL aliquot was removed and serially diluted using saline. 6 mL of tryptone soy broth was then added to the suspensions. They were then added to 10 ml, of molten double strength tryptone soy agar and plate poured. Once cooled the plates were inoculated with 94 cfu of S. aureus ATCC 6538P. The plates were then incubated at 32° C. for 5 days. Following the incubation the number of colonies of S. aureus isolated was then determined.

CC(C)=CCCC(C)=CCCC(C)=CCO [farnesol]
Antimicrobial effect of the combination: synergistic antimicrobial effects
